# Laboratory results from patent US10221177B2 (HYDRA BIOSCIENCES, INC., priority 2014, dated 2019).
# Biological target: human TRPA1 (Homo sapiens (Human), UniProt O75762)
# Test: In vitro inhibition of human TRPA1, whole cell patch configuration
# Type: cell-based
# Details: current activation 10 μM AITC, tested concentrations 320 pM to 3.2 μM, read-out: hTRPA1 IC50
# Procedure: All currents were recorded in whole-cell configuration using EPC-9 and EPC-10 amplifiers and Patchmaster software (HEKA) or similar. […] The standard bath solution contained 150 mM NaCl, 10 mM HEPES, 10 mM glucose, 4.5 mM KCl, 1 mM EGTA, 3 mM MgCl2, with pH adjusted to 7.4 with NaOH. In some instances, 2 mM CaCl2 was added in place of EGTA and the concentration of MgCl2 was reduced to 1 mM.
# Data were collected either by continuous recordings at −60 mV or by applying voltage ramps from a holding potential of −40 mV every 4 s. Continuous recordings were collected at 400 Hz and digitally filtered off-line at 10 Hz for presentation. Voltage ramps were applied from −100 mV or −80 mV to +100 mV or +80 mV over the course of 400 ms, and data were collected at 10 kHz and filtered at 2.9 kHz. Inward and outward currents were analyzed from the ramps at −80 and 80 mV, respectively. Liquid junction potential correction was not used.
# Solutions were switched using a gravity-fed continuous focal perfusion system. To achieve rapid temperature changes, two temperature control, and perfusion systems were employed simultaneously. […] Temperatures were confirmed using a thermistor (Warner Instruments, TA-29), with temperatures at the recorded cell estimated to be within +/−2° C. of those reported.
# The antagonist effects of compounds of Formula (I) against human TRPA1 (“hTRPA1”) in a whole cell patch configuration were evaluated using the in vitro assay described above.
# Sequence of human TRPA1 (O75762 whole entry): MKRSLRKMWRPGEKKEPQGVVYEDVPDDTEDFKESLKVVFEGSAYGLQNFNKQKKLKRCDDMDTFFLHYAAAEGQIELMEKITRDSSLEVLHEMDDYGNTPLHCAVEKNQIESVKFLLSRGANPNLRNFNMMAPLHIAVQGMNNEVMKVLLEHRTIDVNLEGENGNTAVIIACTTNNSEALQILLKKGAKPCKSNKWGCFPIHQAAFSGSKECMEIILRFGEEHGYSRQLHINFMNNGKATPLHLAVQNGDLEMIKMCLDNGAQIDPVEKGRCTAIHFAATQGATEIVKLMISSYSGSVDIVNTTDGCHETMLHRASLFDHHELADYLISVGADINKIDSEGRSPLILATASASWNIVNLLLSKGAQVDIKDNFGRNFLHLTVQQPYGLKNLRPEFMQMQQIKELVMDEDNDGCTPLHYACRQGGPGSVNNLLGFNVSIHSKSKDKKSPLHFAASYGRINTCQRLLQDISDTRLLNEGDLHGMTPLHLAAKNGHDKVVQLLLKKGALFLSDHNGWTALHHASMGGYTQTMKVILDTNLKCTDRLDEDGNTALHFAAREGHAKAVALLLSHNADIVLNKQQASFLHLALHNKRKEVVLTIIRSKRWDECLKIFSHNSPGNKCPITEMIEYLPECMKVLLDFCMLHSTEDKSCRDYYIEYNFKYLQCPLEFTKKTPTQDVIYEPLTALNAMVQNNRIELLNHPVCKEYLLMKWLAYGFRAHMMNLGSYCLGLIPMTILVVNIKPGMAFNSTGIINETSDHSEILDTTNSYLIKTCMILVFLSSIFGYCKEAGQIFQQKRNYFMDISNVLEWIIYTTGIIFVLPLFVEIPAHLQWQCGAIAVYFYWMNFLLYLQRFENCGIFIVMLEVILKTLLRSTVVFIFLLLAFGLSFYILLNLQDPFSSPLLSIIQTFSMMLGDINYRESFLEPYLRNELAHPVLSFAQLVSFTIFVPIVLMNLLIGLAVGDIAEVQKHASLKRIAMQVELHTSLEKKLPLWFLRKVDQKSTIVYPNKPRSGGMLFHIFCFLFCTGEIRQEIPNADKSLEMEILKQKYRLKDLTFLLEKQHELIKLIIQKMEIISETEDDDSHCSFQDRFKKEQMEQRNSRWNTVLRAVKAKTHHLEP
row,Compound,IC50
1,"COCC(=O)Cn1c(=O)c2c(ncn2[C@@H](C)C(=O)Nc2cccc(-c3ccc(N4CC5C(C4)C5(F)F)nc3)n2)n(C)c1=O (stereo partly drawn) [Compound 258, (2S)—N-(6′-(6,6-difluoro-3-azabicyclo[3.1.0]hexan-3-yl)-[2,3′-bipyridin]-6-yl)-2-(1-(3-methoxy-2-oxopropyl)-3-methyl-2,6-dioxo-2,3-dihydro-1H-purin-7(6H)-yl)propanamide]",7 nM
2,"CC(=O)Cn1c(=O)c2c(ncn2[C@@H](C)C(=O)Nc2ccnc(-c3ccc(N4CC5CC5C4)nc3)n2)n(C)c1=O (stereo partly drawn) [Compound 46, (2S)—N-(2-(6-(3-azabicyclo[3.1.0]hexan-3-yl)pyridin-3-yl)pyrimidin-4-yl)-2-(3-methyl-2,6-dioxo-1-(2-oxopropyl)-2,3-dihydro-1H-purin-7(6H)-yl)propanamide]",22 nM
3,"C[C@@H](C(=O)Nc1cncc(-c2ccc(N3CC4CC4C3)nc2)n1)n1cnc2c1c(=O)n(CC#N)c(=O)n2C (stereo partly drawn) [Compound 43, (2S)—N-(6-(6-(3-azabicyclo[3.1.0]hexan-3-yl)pyridin-3-yl)pyrazin-2-yl)-2-(1-(cyanomethyl)-3-methyl-2,6-dioxo-2,3-dihydro-1H-purin-7(6H)-yl)propanamide]",8 nM
4,CC(=O)Cn1c(=O)c2c(ncn2[C@@H](C)C(=O)Nc2ccnc(-c3cnc(C)c(C(F)(F)F)c3)n2)n(C)c1=O [Compound 111],3 nM
5,"Cc1noc(Cn2c(=O)c3c(ncn3CC(=O)Nc3csc(-c4cnc(C(F)(F)F)nc4)n3)n(C)c2=O)n1 [Compound 260, 2-(3-methyl-1-((3-methyl-1,2,4-oxadiazol-5-yl)methyl)-2,6-dioxo-2,3-dihydro-1H-purin-7(6H)-yl)-N-(2-(2-(trifluoromethyl)pyrimidin-5-yl)thiazol-4-yl)acetamide]",17 nM
6,"C[C@@H](C(=O)Nc1csc(-c2cnc(N3CC4C(C3)C4(F)F)nc2)n1)n1cnc2c1c(=O)n(CC#N)c(=O)n2C (stereo partly drawn) [Compound 58, (2S)-2-(1-(cyanomethyl)-3-methyl-2,6-dioxo-2,3-dihydro-1H-purin-7(6H)-yl)-N-(2-(2-(6,6-difluoro-3-azabicyclo[3.1.0]hexan-3-yl)pyrimidin-5-yl)thiazol-4-yl)propanamide]",2 nM
7,"Cc1cc(Cn2c(=O)c3c(ncn3CC(=O)Nc3csc(-c4cnc(C(F)(F)F)c(C)c4)n3)n(C)c2=O)no1 [Compound 217, 2-(3-methyl-1-((5-methylisoxazol-3-yl)methyl)-2,6-dioxo-2,3-dihydro-1H-purin-7(6H)-yl)-N-(2-(5-methyl-6-(trifluoromethyl)pyridin-3-yl)thiazol-4-yl)acetamide]",3 nM
8,"CC(=O)Cn1c(=O)c2c(ncn2[C@@H](C)C(=O)Nc2cncc(-c3ccc(N4CC5CC5C4)nc3)n2)n(C)c1=O (stereo partly drawn) [Compound 41, (2S)—N-(6-(6-(3-azabicyclo[3.1.0]hexan-3-yl)pyridin-3-yl)pyrazin-2-yl)-2-(3-methyl-2,6-dioxo-1-(2-oxopropyl)-2,3-dihydro-1H-purin-7(6H)-yl)propanamide]",12 nM
9,"Cc1cc(Cn2c(=O)c3c(ncn3[C@@H](C)C(=O)Nc3ccnc(-c4cnc(N5CCC[C@H]5C(F)(F)F)nc4)n3)n(C)c2=O)no1 [Compound 114, (S)-2-(3-methyl-1-((5-methylisoxazol-3-yl)methyl)-2,6-dioxo-2,3-dihydro-1H-purin-7(6H)-yl)-N-(2′-((S)-2-(trifluoromethyl)pyrrolidin-1-yl)-[2,5′-bipyrimidin]-4-yl)propanamide]",2 nM
10,"CCOc1ncc(-c2cccc(NC(=O)[C@H](C)n3cnc4c3c(=O)n(CC(=O)CC)c(=O)n4C)n2)cc1C(F)(F)F [Compound 125, (S)—N-(6′-ethoxy-5′-(trifluoromethyl)-[2,3′-bipyridin]-6-yl)-2-(3-methyl-2,6-dioxo-1-(2-oxobutyl)-2,3-dihydro-1H-purin-7(6H)-yl)propanamide]",1 nM
11,"Cn1c(=O)n(Cc2ccccn2)c(=O)c2c1ncn2CC(=O)Nc1cccc(-c2cnc(C(F)(F)F)nc2)n1 [Compound 186, 2-(3-methyl-2,6-dioxo-1-(pyridin-2-ylmethyl)-2,3-dihydro-1H-purin-7(6H)-yl)-N-(6-(2-(trifluoromethyl)pyrimidin-5-yl)pyridin-2-yl)acetamide]",74 nM
12,"Cn1c(=O)n(Cc2ccccn2)c(=O)c2c1ncn2CC(=O)Nc1cccc(-c2cnc(N3CCC[C@H]3C(F)(F)F)nc2)n1 [Compound 189, (S)-2-(3-methyl-2,6-dioxo-1-(pyridin-2-ylmethyl)-2,3-dihydro-1H-purin-7(6H)-yl)-N-(6-(2-(2-(trifluoromethyl)pyrrolidin-1-yl)pyrimidin-5-yl)pyridin-2-yl)acetamide]",2 nM
13,Cc1cc(Cn2c(=O)c3c(ncn3[C@@H](C)C(=O)Nc3cccc(-c4ccc(C(F)(F)F)cc4)n3)n(C)c2=O)no1 [Compound 23],5 nM
14,"C[C@@H](C(=O)Nc1cccc(-c2cnc(N3CC4C(C3)C4(F)F)nc2)n1)n1cnc2c1c(=O)n(CC#N)c(=O)n2C (stereo partly drawn) [Compound 30, (2S)-2-(1-(cyanomethyl)-3-methyl-2,6-dioxo-2,3-dihydro-1H-purin-7(6H)-yl)-N-(6-(2-(6,6-difluoro-3-azabicyclo[3.1.0]hexan-3-yl)pyrimidin-5-yl)pyridin-2-yl)propanamide]",3 nM
15,"CC#CCn1c(=O)c2c(ncn2[C@@H](C)C(=O)Nc2csc(-c3cnc(N4CC5CC5C4)nc3)n2)n(C)c1=O (stereo partly drawn) [Compound 145, (2S)—N-(2-(2-(3-azabicyclo[3.1.0]hexan-3-yl)pyrimidin-5-yl)thiazol-4-yl)-2-(1-(but-2-ynyl)-3-methyl-2,6-dioxo-2,3-dihydro-1H-purin-7(6H)-yl)propanamide]",2 nM
16,"Cc1cc(Cn2c(=O)c3c(ncn3CC(=O)Nc3cccc(-c4cnc(C(F)(F)F)c(C)c4)n3)n(C)c2=O)on1 [Compound 225, 2-(3-methyl-1-((3-methylisoxazol-5-yl)methyl)-2,6-dioxo-2,3-dihydro-1H-purin-7(6H)-yl)-N-(5′-methyl-6′-(trifluoromethyl)-[2,3′-bipyridin]-6-yl)acetamide]",49 nM
17,"C[C@@H](C(=O)Nc1cccc(-c2cnc(C(F)(F)F)nc2)n1)n1cnc2c1c(=O)n(Cc1ccon1)c(=O)n2C [Compound 117, (S)-2-(1-(isoxazol-3-ylmethyl)-3-methyl-2,6-dioxo-2,3-dihydro-1H-purin-7(6H)-yl)-N-(6-(2-(trifluoromethyl)pyrimidin-5-yl)pyridin-2-yl)propanamide]",18 nM
18,"CC#CCn1c(=O)c2c(ncn2[C@@H](C)C(=O)Nc2csc(-c3ccc(N4CC5CC5C4)nc3)n2)n(C)c1=O (stereo partly drawn) [Compound 263, (2S)—N-(2-(6-(3-azabicyclo[3.1.0]hexan-3-yl)pyridin-3-yl)thiazol-4-yl)-2-(1-(but-2-yn-1-yl)-3-methyl-2,6-dioxo-2,3-dihydro-1H-purin-7(6H)-yl)propanamide]",4 nM
19,"CCC(=O)Cn1c(=O)c2c(ncn2[C@@H](C)C(=O)Nc2ccnc(-c3ccc(N4CC5CC5C4)nc3)n2)n(C)c1=O (stereo partly drawn) [Compound 47, (2S)—N-(2-(6-(3-azabicyclo[3.1.0]hexan-3-yl)pyridin-3-yl)pyrimidin-4-yl)-2-(3-methyl-2,6-dioxo-1-(2-oxobutyl)-2,3-dihydro-1H-purin-7(6H)-yl)propanamide]",4 nM
20,"CCC(=O)Cn1c(=O)c2c(ncn2[C@@H](C)C(=O)Nc2cccc(-c3cnc(N4CC5CC5C4)cn3)n2)n(C)c1=O (stereo partly drawn) [Compound 113, (2S)—N-(6-(5-(3-azabicyclo[3.1.0]hexan-3-yl)pyrazin-2-yl)pyridin-2-yl)-2-(3-methyl-2,6-dioxo-1-(2-oxobutyl)-2,3-dihydro-1H-purin-7(6H)-yl)propanamide]",2 nM
21,"C[C@@H](C(=O)Nc1csc(-c2ccc(Cl)c(Cl)c2)n1)n1cnc2c1c(=O)n(CC#N)c(=O)n2C [Compound 29, (S)-2-(1-(cyanomethyl)-3-methyl-2,6-dioxo-2,3-dihydro-1H-purin-7(6H)-yl)-N-(2-(3,4-dichlorophenyl)thiazol-4-yl)propanamide]",1 nM
22,"CCC(=O)Cn1c(=O)c2c(ncn2[C@@H](C)C(=O)Nc2cncc(-c3ccc(N4CC5C(C4)C5(F)F)nc3)n2)n(C)c1=O (stereo partly drawn) [Compound 84, (2S)—N-(6-(6-(6,6-difluoro-3-azabicyclo[3.1.0]hexan-3-yl)pyridin-3-yl)pyrazin-2-yl)-2-(3-methyl-2,6-dioxo-1-(2-oxobutyl)-2,3-dihydro-1H-purin-7(6H)-yl)propanamide]",4 nM
23,"CCC(=O)Cn1c(=O)c2c(ncn2C(C)C(=O)Nc2ccnc(-c3cnc(N4CC5CC5C4)nc3)n2)n(C)c1=O (stereo not drawn) [Compound 17, N-(2′-(3-azabicyclo[3.1.0]hexan-3-yl)-2,5′-bipyrimidin-4-yl)-2-(3-methyl-2,6-dioxo-1-(2-oxobutyl)-2,3-dihydro-1H-purin-7(6H)-yl)propanamide]",8 nM
24,"CC(=O)Cn1c(=O)c2c(ncn2CC(=O)Nc2cncc(-c3cnc(C)c(C(F)(F)F)c3)n2)n(C)c1=O [Compound 245, 2-(3-methyl-2,6-dioxo-1-(2-oxopropyl)-2,3-dihydro-1H-purin-7(6H)-yl)-N-(6-(6-methyl-5-(trifluoromethyl)pyridin-3-yl)pyrazin-2-yl)acetamide]",8 nM
